This passage reports Ki results from patent publication US20070254917A1, “INTRACELLULAR RECEPTOR MODULATOR COMPOUNDS AND METHODS” (priority 2004, published 2007).

In general, Ki refers to a dissociation constant, usually derived from enzyme kinetics or from competition with a known ligand. A higher Ki goes with weaker binding.

Structures are written as SMILES.

The assay concerns the target T1, human glucocorticoid receptor protein (GR) (Homo sapiens, UniProt P04150).
T1 construct: made in house; host or cells: Sf21 insect cells (baculovirus)
T1 sequence (P04150 1-777): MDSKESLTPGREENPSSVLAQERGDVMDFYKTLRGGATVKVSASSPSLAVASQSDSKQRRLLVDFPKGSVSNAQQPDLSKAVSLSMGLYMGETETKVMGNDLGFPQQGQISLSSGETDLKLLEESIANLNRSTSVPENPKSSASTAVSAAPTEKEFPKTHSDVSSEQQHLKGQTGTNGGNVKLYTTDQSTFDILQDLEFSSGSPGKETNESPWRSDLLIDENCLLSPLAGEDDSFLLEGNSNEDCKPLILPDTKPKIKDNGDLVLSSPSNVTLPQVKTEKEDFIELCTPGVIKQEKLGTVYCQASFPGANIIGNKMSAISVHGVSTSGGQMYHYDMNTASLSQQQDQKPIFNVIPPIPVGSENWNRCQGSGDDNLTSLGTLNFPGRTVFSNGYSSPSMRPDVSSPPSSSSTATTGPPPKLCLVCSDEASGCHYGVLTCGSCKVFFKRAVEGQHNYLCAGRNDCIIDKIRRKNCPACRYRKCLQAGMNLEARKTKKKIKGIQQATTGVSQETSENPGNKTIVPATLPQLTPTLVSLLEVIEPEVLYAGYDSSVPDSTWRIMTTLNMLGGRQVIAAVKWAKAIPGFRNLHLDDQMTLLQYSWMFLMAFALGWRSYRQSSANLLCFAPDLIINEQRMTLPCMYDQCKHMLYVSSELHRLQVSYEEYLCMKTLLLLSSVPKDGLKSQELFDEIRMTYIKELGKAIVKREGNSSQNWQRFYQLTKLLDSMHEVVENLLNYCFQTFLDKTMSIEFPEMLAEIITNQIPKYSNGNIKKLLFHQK
Put plainly: Glucocorticoid binding assay ([3H]dexamethasone displacement, GR lysate). The conditions noted are these: baculovirus-expressed GR lysate from Sf21 cells; 2-4 nM [3H]dexamethasone; 16 hours at 4° C.; Cheng-Prusoff from IC50.

Experimental: A baculovirus expression plasmid comprising cDNA encoding the human glucocorticoid receptor protein (GR) was prepared using standard techniques. […] That expression plasmid was co-transfected together with wild type Autographa californica multiple nuclear polyhedrosis virus DNA into Spodopter frugiperda-21 (Sf-21) cells to generate recombinant virus comprising GR cDNA. […] That recombinant virus comprising GR cDNA was collected.
A suspension culture of uninfected Sf21 cells was grown to a density of 1.2×10^6 cells/ml and then infected with the recombinant virus comprising GR cDNA at a multiplicity of infection of 2. Those infected Sf21 cells were incubated for 48 hours and then collected by centrifugation at 1000×g for 10 minutes at 4° C. The resulting cell pellets were resuspended in lysis buffer (50 mM Potassium Phosphate buffer, pH 7.0, 10 mM Monothioglycerol, 5 mM DTT, 20 mM Sodium Molybdate, 1 mM PMSF, 1 μg/mL aprotinin, and 10 μg/mL leupeptin) and incubated for 15 minutes on ice. Those resuspended cell pellets were homogenized using a Dounce homogenizer and a B pestle. A volume of 2 M KCl was added to the homogenized cell pellets to a final concentration of 0.4 M. The resulting GR lysates were centrifuged at 100,000×g for 60 min at 4° C. and stored for use in binding assays.
Binding assay samples were prepared in separate mini-tubes in a 96-well format at 4° C. […] Each reference compound and test compound was assayed at varying concentrations, ranging from 0 to 10^−5 M. Each concentration of each reference compound and each test compound was assayed in triplicate. The assay samples were incubated for 16 hours at 4° C.
After incubation, 200 μl of 6.25% hydroxylapatite in assay buffer was added to each assay sample to precipitate the protein. The assay samples were then centrifuged and the supernatants were discarded. The resulting pellets were washed twice with assay buffer lacking DTT. Radioactivity in counts per minute (CPM) of each washed pellet was determined by liquid scintillation counter (MicroBeta™, Wallach).

As for `Cc1cc(-c2cccc(C#N)c2C)c(Cl)c2c1NC(C)(C)CC2C` (racemic) [Compound 155, (±)-5-Chloro-6-(3-cyano-2-methylphenyl)-1,2,3,4-tetrahydro-2,2,4,8-tetramethylquinoline], affinity was put at a Ki of 1.4 nM.

The compound `Cc1cc(-c2ccccc2Cl)c(Cl)c2c1NC(C)(C)CC2C` (racemic) [Compound 118, (±)-5-Chloro-6-(2-chlorophenyl)-1,2,3,4-tetrahydro-2,2,4,8-tetramethylquinoline] displayed a Ki of 22 nM.

Turning to `Cc1cc(-c2csc3ccccc23)c(Cl)c2c1NC(C)(C)C(O)C2C` (racemic) [Compound 194, (±)-6-(Benzothiophen-3-yl)-5-chloro-1,2,3,4-tetrahydro-3α-hydroxy-2,2,4α,8-tetramethylquinoline], the Ki worked out at 13 nM.

In the case of `CC(C)=CCOc1c(-c2cc(C)c3c(c2Cl)C(C)CC(C)(C)N3)cccc1[N+](=O)[O-]` (racemic) [Compound 203, (±)-5-Chloro-1,2,3,4-tetrahydro-2,2,4,8-tetramethyl-6-[2-(methylbut-2-enyloxy)-3-nitrophenyl]quinoline], affinity was put at a Ki of 56 nM.

`Cc1cc(-c2ccc(F)c3c(C)c[nH]c23)c(Cl)c2c1NC(C)(C)CC2C` (racemic) [Compound 147, (±)-5-Chloro-6-(4-fluoro-3-methylindol-7-yl)-1,2,3,4-tetrahydro-2,2,4,8-tetramethylquinoline]: the inhibitory constant (Ki) was 2 nM.

`COc1cccc(OC)c1-c1cc(C)c2c(c1Cl)C(C)CC(C)(C)N2` (racemic) [Compound 104, (±)-5-Chloro-6-(2,6-dimethoxyphenyl)-1,2,3,4-tetrahydro-2,2,4,8-tetramethylquinoline] displayed an inhibitory constant (Ki) of 34 nM.

Regarding `Cc1cc(-c2cccc3c2CCC3=NO)c(Cl)c2c1NC(C)(C)CC2C` (racemic) [Compound 154, (±)-5-Chloro-6-(1-hydroxyiminoindan-4-yl)-1,2,3,4-tetrahydro-2,2,4,8-tetramethylquinoline], affinity was put at a Ki of 0.4 nM. This Ki lies about 85-fold lower than the previous one.

`COc1c(C#N)cccc1-c1cc(C)c2c(c1Cl)C(C)C(=O)C(C)(C)N2` (racemic) [Compound 179, (±)-5-Chloro-6-(3-cyano-2-methoxyphenyl)-1,4-dihydro-2,2,4,8-tetramethyl-2H-quinolin-3-one] returned a Ki of 2.6 nM. Against the preceding compound, the Ki is about 6.5-fold higher.

Compound `Cc1cc(-c2csc3ccccc23)c(Cl)c2c1NC(C)(C)CC2C` (racemic) [Compound 109, (±)-6-(Benzothiophen-3-yl)-5-chloro-1,2,3,4-tetrahydro-2,2,4,8-tetramethylquinoline] gave a Ki of 4 nM.

Compound `COc1c(C#N)cccc1-c1cc(C)c2c(c1Cl)C(C)C(O)C(C)(C)N2` (racemic) [Compound 191, (±)-5-Chloro-6-(3-cyano-2-methoxyphenyl)-1,2,3,4-tetrahydro-3α-hydroxy-2,2,4α,8-tetramethylquinoline] registered an inhibition constant (Ki) of 4.8 nM. This Ki and that of the compound before are within 1.5-fold of each other.

As to `Cc1cc(-c2cccc3ccccc23)c(Cl)c2c1NC(C)(C)CC2C` (racemic) [Compound 135, (±)-5-Chloro-1,2,3,4-tetrahydro-2,2,4,8-tetramethyl-6-(naphthal-1-yl)quinoline], the Ki is 8.8 nM.

`CC(=O)c1ccccc1-c1cc(C)c2c(c1Cl)C(C)CC(C)(C)N2` (racemic) [Compound 119, (±)-6-(2-Acetylphenyl)-5-chloro-1,2,3,4-tetrahydro-2,2,4,8-tetramethylquinoline]: the inhibition constant (Ki) is 97 nM.

In turn, `COc1c(-c2cc(C)c3c(c2Cl)C(C)CC(C)(C)N3)cccc1[N+](=O)[O-]` (racemic) [Compound 156, (±)-5-Chloro-1,2,3,4-tetrahydro-6-(2-methoxy-3-nitrophenyl)-2,2,4,8-tetramethylquinoline] returned a Ki of 2.9 nM.

For `Cc1cc(-c2cccc3c2NCC3)c(Cl)c2c1NC(C)(C)CC2C` (racemic) [Compound 210, (±)-5-Chloro-1,2,3,4-tetrahydro-6-(indolin-7-yl)-2,2,4,8-tetramethylquinoline], the affinity, expressed as Ki, was 5.7 nM.

`Cc1cc(-c2c(C)noc2C)c(Cl)c2c1NC(C)(C)C(O)C2C` (racemic) [Compound 164, (±)-5-Chloro-6-(3,5-dimethylisoxazol-4-yl)-1,2,3,4-tetrahydro-3β-hydroxy-2,2,4α,8-tetramethylquinoline] registered a Ki of 3.3 nM. This Ki is about 1.7-fold lower than that of the compound before.

Compound `Cc1cc(-c2cccc(C(F)(F)F)c2F)c(Cl)c2c1NC(C)(C)CC2C` (racemic) [Compound 130, (±)-5-Chloro-6-[2-fluoro-3-(trifluoromethyl)phenyl]-1,2,3,4-tetrahydro-2,2,4,8-tetramethylquinoline] showed a Ki of 81 nM.

With `COc1c(C#N)cccc1-c1cc(C)c2c(c1Cl)C(C)C(O)C(C)(C)N2` (racemic) [Compound 165, (±)-5-Chloro-6-(3-cyano-2-methoxyphenyl)-1,2,3,4-tetrahydro-3β-hydroxy-2,2,4α,8-tetramethylquinoline], the affinity corresponds to a Ki of 2.7 nM. Against the preceding compound, the Ki is about 30-fold lower.

For `Cc1cc(-c2ccccc2[N+](=O)[O-])c(Cl)c2c1NC(C)(C)CC2C` (racemic) [Compound 122, (±)-5-Chloro-1,2,3,4-tetrahydro-2,2,4,8-tetramethyl-6-(2-nitrophenyl)quinoline], affinity was put at a Ki of 78 nM.

Regarding `Cc1cc(-c2cccc3c2OCC(=O)N3C)c(Cl)c2c1NC(C)(C)CC2C` (racemic) [Compound 205, (±)-5-Chloro-1,2,3,4-tetrahydro-2,2,4,8-tetramethyl-6-(4-methyl-2H-1,4-benzoxazin-3(4H)-on-8-yl)quinoline], the Ki was 87 nM.

In turn, `Cc1cc(-c2cccc3ccccc23)c(Cl)c2c1NC(C)(C)CC2(C)O` (racemic) [Compound 215, (±)-5-Chloro-1,2,3,4-tetrahydro-4-hydroxy-2,2,4,8-tetramethyl-6-(naphthal-1-yl)quinoline] gave an inhibition constant Ki of 5.9 nM.

For the compound `CC(C)=CCC1(C)C(=O)C(C)(C)Nc2c(C)cc(-c3c(C)noc3C)c(Cl)c21` (racemic) [Compound 185, (±)-5-Chloro-4-(3,3-dimethylallyl)-6-(3,5-dimethylisoxazol-4-yl)-1,4-dihydro-2,2,4,8-tetramethyl-2H-quinolin-3-one], the inhibition constant (Ki) was found to be 2.5 nM.

`COc1ccc(Cl)cc1-c1cc(C)c2c(c1Cl)C(C)CC(C)(C)N2` (racemic) [Compound 121, (±)-5-Chloro-6-(5-chloro-2-methoxyphenyl)-1,2,3,4-tetrahydro-2,2,4,8-tetramethylquinoline] showed a Ki of 14 nM.

Compound `COc1c(O)cccc1-c1cc(C)c2c(c1Cl)C(C)CC(C)(C)N2` (racemic) [Compound 151, (±)-5-Chloro-1,2,3,4-tetrahydro-6-(3-hydroxy-2-methoxyphenyl)-2,2,4,8-tetramethylquinoline] came in with an inhibitory constant (Ki) of 3.6 nM.

Compound `Cc1cc(-c2cccc3c2OCC(=O)N3)c(Cl)c2c1NC(C)(C)CC2C` (racemic) [Compound 204, (±)-6-(2H-1,4-Benzoxazin-3(4H)-on-8-yl)-5-chloro-1,2,3,4-tetrahydro-2,2,4,8-tetramethylquinoline] displayed an inhibition constant (Ki) of 26 nM.

`Cc1cc(-c2cc3ccccc3s2)c(Cl)c2c1NC(C)(C)CC2C` (racemic) [Compound 116, (±)-6-(Benzothiophen-2-yl)-5-chloro-1,2,3,4-tetrahydro-2,2,4,8-tetramethylquinoline] gave a Ki of 420 nM.

`Cc1cc(-c2ccsc2)c(Cl)c2c1NC(C)(C)C(O)C2C` (racemic) [Compound 160, (±)-5-Chloro-1,2,3,4-tetrahydro-3β-hydroxy-2,2,4α,8-tetramethyl-6-(thiophen-3-yl)quinoline] had a Ki of 130 nM.

In turn, `Cc1cc(-c2c(C)noc2C)c(Cl)c2c1NC(C)(C)C(O)C2C` (racemic) [Compound 192, (±)-5-Chloro-6-(3,5-dimethylisoxazol-4-yl)-1,2,3,4-tetrahydro-3α-hydroxy-2,2,4α,8-tetramethylquinoline] gave an inhibition constant Ki of 9.4 nM. Compared with the last compound, the Ki is about 14-fold lower.
